Results: ChEMBL document CHEMBL5038592, “Discovery of MK-8153, a Potent and Selective ROMK Inhibitor and Novel Diuretic/Natriuretic” (J Med Chem, 2021)

Assays:
[1] = Drug metabolism in rhesus monkey hepatocytes assessed as N-acetylglucosamine conjugate metabolite formation by LC/MS analysis; assay type: ADME, cell-based, Macaca mulatta, Hepatocyte
Rattus norvegicus [2] = test: Diuretic activity in orally dosed spontaneous hypertensive rat assessed as increase in sodium excretion treated for 3 days measured after 0 to 24 hrs of dosing; assay type: functional, organism-based; details: time 3.0 day
Rattus norvegicus [3] = test: Diuretic activity in orally dosed spontaneous hypertensive rat assessed as urine volume treated for 3 days measured after 0 to 4 hrs of dosing; assay type: functional, organism-based; details: time 3.0 day
[4] = Terminal half life in Wistar Han rat at 2 mg/kg, po or 1 mg/kg, iv; assay type: ADME, organism-based; details: in vivo, read-out: beta t1/2 (converted)
[5] = Terminal half life in Beagle dog at 2 mg/kg, po or 1 mg/kg, iv; assay type: ADME, organism-based, Canis lupus familiaris; details: in vivo, read-out: beta t1/2 (converted)
[6] = Toxicity in dog assessed as tolerance at 0.3 to 6 mg/kg treated for 7 days; assay type: organism-based, Canis lupus familiaris; details: in vivo, 168 h, dose 0.3-6 mg/kg, time 7 day
[7] = Drug excretion in bile-duct cannulated rat assessed as urinary excretion; assay type: ADME; details: urine, read-out: Drug excretion
[8] = Drug metabolism in Wistar Han rat hepatocytes assessed as metabolite formation by LC/MS analysis; assay type: ADME, cell-based, Hepatocyte
[9] = AUC (0 to infinity) in Wistar Han rat at 2 mg/kg, po or 1 mg/kg, iv; assay type: ADME, organism-based; set-up: dose 2 mg/kg; details: in vivo
[10] = Volume of distribution at steady state in Wistar Han rat at 2 mg/kg, po or 1 mg/kg, iv; assay type: ADME, organism-based; details: in vivo, read-out: Vdss
[11] = Effective half life in rhesus monkey at 2 mg/kg, po or 1 mg/kg, iv; assay type: ADME, organism-based, Macaca mulatta; details: in vivo, read-out: t1/2eff (converted)
[12] = Metabolic stability in Wistar Han rat hepatocytes by LC/MS analysis; assay type: ADME, cell-based, Hepatocyte
[13] = Tmax in Beagle dog at 2 mg/kg, po or 1 mg/kg, iv; assay type: ADME, organism-based, Canis lupus familiaris; details: in vivo
[14] = Oral bioavailability in Wistar Han rat at 2 mg/kg; assay type: ADME, organism-based; details: in vivo
[15] = Terminal half life in rhesus monkey at 2 mg/kg, po or 1 mg/kg, iv; assay type: ADME, organism-based, Macaca mulatta; details: in vivo, read-out: beta t1/2 (converted)
[16] = Tmax in rhesus monkey at 2 mg/kg, po or 1 mg/kg, iv; assay type: ADME, organism-based, Macaca mulatta; details: in vivo
[17] = target: T1, Inward rectifier potassium channel 13 (Homo sapiens, UniProt O60928); test: Inhibition of Kir7.1 (unknown origin)
T1 sequence (O60928 whole entry): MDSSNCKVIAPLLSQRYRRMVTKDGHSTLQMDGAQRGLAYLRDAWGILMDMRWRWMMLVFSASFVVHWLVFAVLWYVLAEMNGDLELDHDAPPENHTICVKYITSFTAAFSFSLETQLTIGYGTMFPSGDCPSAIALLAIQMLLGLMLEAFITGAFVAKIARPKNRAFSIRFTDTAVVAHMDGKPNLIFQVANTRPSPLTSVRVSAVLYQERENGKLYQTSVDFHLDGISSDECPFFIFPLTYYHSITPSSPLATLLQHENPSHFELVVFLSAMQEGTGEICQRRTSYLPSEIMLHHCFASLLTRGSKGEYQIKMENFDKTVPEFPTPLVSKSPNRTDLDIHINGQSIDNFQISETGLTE

[18] = target: T2, ATP-sensitive inward rectifier potassium channel 1 (Homo sapiens, UniProt P48048); test: Inhibition of human ROMK expressed in CHO cells by whole cell voltage clamp electrophysiology assay; assay type: cell-based
T2 sequence (P48048 whole entry): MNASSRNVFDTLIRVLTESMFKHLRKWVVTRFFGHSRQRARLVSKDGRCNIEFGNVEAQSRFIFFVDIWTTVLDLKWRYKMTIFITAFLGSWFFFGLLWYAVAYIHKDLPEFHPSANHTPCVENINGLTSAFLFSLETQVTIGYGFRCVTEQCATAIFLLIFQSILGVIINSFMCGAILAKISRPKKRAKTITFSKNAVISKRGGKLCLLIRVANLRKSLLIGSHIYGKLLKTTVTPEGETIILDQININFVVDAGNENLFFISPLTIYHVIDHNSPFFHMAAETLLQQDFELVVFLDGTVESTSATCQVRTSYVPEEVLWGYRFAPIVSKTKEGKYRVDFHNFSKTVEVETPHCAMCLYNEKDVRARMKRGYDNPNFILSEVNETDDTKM

[19] = Clearance in Beagle dog at 2 mg/kg, po or 1 mg/kg, iv; assay type: ADME, organism-based, Canis lupus familiaris; details: in vivo
Cytochrome P450 2D6 = Cytochrome P450 2D6 (Homo sapiens, UniProt P10635); test: Inhibition of CYP2D6 (unknown origin)
Sequence of Cytochrome P450 2D6 (P10635 whole entry): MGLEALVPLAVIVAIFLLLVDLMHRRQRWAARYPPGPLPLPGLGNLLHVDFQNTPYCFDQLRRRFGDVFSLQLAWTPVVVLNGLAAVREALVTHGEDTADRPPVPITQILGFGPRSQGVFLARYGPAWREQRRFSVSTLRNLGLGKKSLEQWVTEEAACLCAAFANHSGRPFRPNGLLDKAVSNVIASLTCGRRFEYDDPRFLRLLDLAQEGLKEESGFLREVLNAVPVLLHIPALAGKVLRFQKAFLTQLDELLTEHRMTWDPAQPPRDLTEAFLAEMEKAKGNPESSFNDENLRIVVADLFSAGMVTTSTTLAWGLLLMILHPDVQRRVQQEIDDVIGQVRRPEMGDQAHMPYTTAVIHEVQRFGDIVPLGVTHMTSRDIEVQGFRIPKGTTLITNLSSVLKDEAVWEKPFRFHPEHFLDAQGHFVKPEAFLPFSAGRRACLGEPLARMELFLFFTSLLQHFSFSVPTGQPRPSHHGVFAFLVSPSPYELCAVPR

[20] = Tmax in Wistar Han rat at 2 mg/kg, po or 1 mg/kg, iv; assay type: ADME, organism-based; details: in vivo
[21] = target: T3, ATP-sensitive inward rectifier potassium channel 10 (Homo sapiens, UniProt P78508); test: Inhibition of Kir4.1 (unknown origin)
T3 sequence (P78508 whole entry): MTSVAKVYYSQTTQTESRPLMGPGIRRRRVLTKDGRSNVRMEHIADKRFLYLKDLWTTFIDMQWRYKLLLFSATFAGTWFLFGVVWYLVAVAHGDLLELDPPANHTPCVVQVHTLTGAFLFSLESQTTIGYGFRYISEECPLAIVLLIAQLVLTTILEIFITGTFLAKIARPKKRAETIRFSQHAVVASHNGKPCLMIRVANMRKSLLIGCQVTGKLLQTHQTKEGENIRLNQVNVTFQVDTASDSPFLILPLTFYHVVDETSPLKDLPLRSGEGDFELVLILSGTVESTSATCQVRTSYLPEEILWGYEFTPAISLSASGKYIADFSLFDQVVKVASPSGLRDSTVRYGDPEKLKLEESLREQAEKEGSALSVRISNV

[22] = Metabolic stability in rhesus monkey liver microsomes by LC/MS analysis; assay type: ADME, Macaca mulatta, Microsome
[23] = AUC (0 to infinity) in Beagle dog at 2 mg/kg, po or 1 mg/kg, iv; assay type: ADME, organism-based, Canis lupus familiaris; set-up: dose 2 mg/kg; details: in vivo
Cytochrome P450 3A4 = Cytochrome P450 3A4 (Homo sapiens, UniProt P08684); test: Inhibition of CYP3A4 (unknown origin)
Sequence of Cytochrome P450 3A4 (P08684 whole entry): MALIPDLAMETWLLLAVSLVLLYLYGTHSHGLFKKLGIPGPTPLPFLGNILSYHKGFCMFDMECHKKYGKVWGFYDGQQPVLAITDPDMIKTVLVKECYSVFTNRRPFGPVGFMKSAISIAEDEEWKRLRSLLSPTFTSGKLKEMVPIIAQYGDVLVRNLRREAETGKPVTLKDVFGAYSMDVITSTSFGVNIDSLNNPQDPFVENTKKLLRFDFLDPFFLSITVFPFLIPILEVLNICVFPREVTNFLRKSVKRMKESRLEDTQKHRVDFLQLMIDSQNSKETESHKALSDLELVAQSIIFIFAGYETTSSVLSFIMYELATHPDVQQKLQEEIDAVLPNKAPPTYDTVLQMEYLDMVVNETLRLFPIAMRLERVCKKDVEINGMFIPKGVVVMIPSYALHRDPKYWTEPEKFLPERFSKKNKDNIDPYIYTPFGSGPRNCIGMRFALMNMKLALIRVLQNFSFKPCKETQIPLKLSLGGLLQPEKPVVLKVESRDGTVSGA

[24] = Metabolic stability in human hepatocytes by LC/MS analysis; assay type: ADME, cell-based, Hepatocyte
[25] = Volume of distribution at steady state in Beagle dog at 2 mg/kg, po or 1 mg/kg, iv; assay type: ADME, organism-based, Canis lupus familiaris; details: in vivo, read-out: Vdss
[26] = target: T4, ATP-sensitive inward rectifier potassium channel 1 (Rattus norvegicus, UniProt P35560); test: Inhibition of rat Kir1.1 expressed in HEK293 cells by electrophysiology assay; assay type: cell-based
T4 sequence (P35560 whole entry): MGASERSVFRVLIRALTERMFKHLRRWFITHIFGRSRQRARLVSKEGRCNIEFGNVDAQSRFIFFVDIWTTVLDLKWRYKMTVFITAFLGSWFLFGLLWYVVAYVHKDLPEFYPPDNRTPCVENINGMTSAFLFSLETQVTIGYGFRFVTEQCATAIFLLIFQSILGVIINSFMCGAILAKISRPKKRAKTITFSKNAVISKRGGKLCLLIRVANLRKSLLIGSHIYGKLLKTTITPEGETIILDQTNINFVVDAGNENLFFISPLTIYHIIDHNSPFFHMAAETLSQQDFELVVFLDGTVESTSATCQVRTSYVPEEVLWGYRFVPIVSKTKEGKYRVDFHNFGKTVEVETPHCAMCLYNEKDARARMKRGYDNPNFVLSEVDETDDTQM

CC1=C(N2CCC3(CCN(C[C@H](O)c4ccc5c(c4C)COC5=O)CC3)C2=O)COC1=O
Drug metabolism [1]: Metabolite_Detected | Activity (Rattus norvegicus [2]): Dose-Dependent Effect | Activity (Rattus norvegicus [3]): Dose-Dependent Effect | half-life [4]: 3.6 h | half-life [5]: 9.1 h | Activity [6]: Non-Toxic | dose excreted [7]: 66% | Drug metabolism [8]: Metabolite_Notdetected | AUC(0-inf) [9]: 1.4 µM·h | Vd [10]: 14.7 L/kg | half-life [11]: 1.8 h | Stability [12]: Stable | Tmax [13]: 0.8 h | bioavailability [14]: 53% | half-life [15]: 3.3 h | Tmax [16]: 0.5 h | IC50 [17]: > 100 µM | IC50 [18]: 0.005 µM | clearance [19]: 8.7 mL/min/kg | IC50 (Cytochrome P450 2D6): > 50 µM | Tmax [20]: 0.5 h | IC50 [21]: > 100 µM | Stability [22]: Stable | AUC(0-inf) [23]: 15.1 µM·h | IC50 (Cytochrome P450 3A4): > 50 µM | Stability [24]: Stable | Vd [25]: 5.2 L/kg | IC50 [26]: 0.0028 µM
